# Measured values from patent US5360803A, “Composition and method for treating cancer” (Dan Farber Cancer Institute, priority 1992, dated 1994).
# Like-named read-outs stand apart in the source and are kept apart here.
# Assays:
# LOX cells = test: colony assay of Example 1 with human melanoma LOX cell line; assay type: cell-based; conditions: for Selectivity: CV-1/LOX; for LOX(IC50) / IC50: Table V, human melanoma, 24 hours treatment; for IC50: LOX;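 on all read-outs here: colony formation assay with 24 h exposure at 37 °C, then 7 to 10 days of regrowth, crystal violet staining of colonies, control wells given medium alone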
# Method: (§2) Human colon carcinoma cell line CX-1 or normal monkey kidney epithelial cell line CV-1 was chosen as representatives of cancer cells and normal cells, respectively. […] CX-1 cells (2,000 cells/well) and CV-1 cells (1,000 cells/well) were plated in 24-well plastic culture plates. […] The control received culture media only. Cells were treated with compounds of General Formulas (I) to (V) at 37° C. for 24 hours. After rinsing with fresh culture medium three times, the cells were further incubated at 37° C. for 7 to 10 days. Cell colonies were fixed and stained with 2% crystal violet in 70% ethanol for 10 minutes and rinsed in water. […] The selectivity is defined as the ratio of IC50 for CV-1 and IC50 for CX-1.
# CX-1 cells = test: selective killing assay, colony number reduced to 50% of control, human colon carcinoma cell line CX-1; assay type: cell-based; conditions: for Selectivity (ratio of IC50 for CV-1 and IC50 for CX-1): CV-1/CX-1; for IC50: Homo sapiens; for CX-1 (IC50): Table III;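 on all read-outs here: colonies stained with crystal violet and counted, control cells given medium alone, exposure at 37 °C, normal monkey kidney epithelial CV-1 cells as the non-cancer comparator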
# human melanoma LOX = test: survival of nude mice implanted with human melanoma LOX; assay type: in vivo, male athymic Swiss nu/nu mouse (human tumor); conditions: for response vs control in vivo at 5 mg/kg: Mus musculus, ip, 24 h, read-out: T/C; for T/C: 5 mg/kg i.p. on day 1, 4, 8, 11, 15, 18
# Method: LOX, a human melanoma cell line, grown subcutaneously in nude mice was excised, trypsinized to yield a single cell suspension using a metal grid with a […] mesh. […] Five million viable trypan blue negative cells made up in 0.1 ml of Dulbecco modified Eagle medium (DMFE) were injected into the peritoneal cavity of a male athymic Swiss nu/nu mouse. The control group and each treatment group consisted of 5 to 10 mice. Treatment was commenced the following day by intraperitoneal injection.
# Ten control mice received 0.25 ml of 2% dextrose on these days the treated groups were injected with the compounds of this invention. […] T/C is the ratio, expressed as a percentage of the mean survival age of the treated group to the mean survival age of the untreated control group.
# MCF-7 cells = test: colony assay of Example 1 with human breast carcinoma MCF-7 cell line; assay type: cell-based; conditions: for Selectivity: CV-1/MCF-7; for MCF-7(IC50) / IC50: Table VI, human breast carcinoma, 24 hours treatment
# Description: (§1) The control received culture media only.
# CRL 1420 cells = test: colony assay of Example 1 with human pancreatic carcinoma CRL 1420 cell line; assay type: cell-based; conditions: for Selectivity: CV-1/CRL-1420; for CRL-1420(IC50): Table VII, human pancreatic carcinoma, 24 hours treatment;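 on all read-outs here: colony formation assay, cells exposed for 24 h then regrown 7 to 10 days without compound, colonies stained with crystal violet, control given medium alone, normal reference CV-1 monkey kidney epithelial cells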
# Method: as §2
# CV-1 cells = test: selective killing assay, colony number reduced to 50% of control, normal monkey kidney epithelial cell line CV-1; assay type: cell-based; conditions: 24 hours treatment; for IC50: Primates
# Description: as §1
# EJ cells = test: colony assay of Example 1 with human bladder carcinoma EJ cell line; assay type: cell-based; conditions: for Selectivity: CV-1/EJ; for IC50: EJ; for IC50 / EJ (IC50): Table IV, human bladder carcinoma, 24 hours treatment;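 on all read-outs here: colony formation assay with 24 h compound exposure at 37 °C, then 7–10 days drug-free regrowth, colonies stained with crystal violet, controls given medium alone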
# Method: as §2
# [1] = test system: human colon carcinoma CX-1; test: anti-human colon carcinoma CX-1 activity using nude mice; assay type: in vivo, Swiss nu/nu mice (human tumor)
# Description: Human colon carcinoma cell line CX-1 has been chosen by the National Cancer Institute as a mode for cancer drug screening (NCI Protocol 3C2H2). It was established in culture from the surgical explant of the primary colon adenocarcinoma of a person with no previous chemotherapy. The cultured CX-1 cells, upon subcutaneous injection, can grow readily in nude mice as a moderately- to well-differentiated human colon carcinoma. CEA is expressed as expected for differentiated colon carcinoma cells. Abundant keratin, consistent with epithelial origin, is present. Increased uptake and prolonged retention of delocalized lipophilic cations are observed.
# Swiss nu/nu mice obtained from Taconic Farm were housed in a pathogen-free environment. Tumors subcutaneously passaged in nude mice were excised under sterile conditions and converted to a single cell suspension using a metal grid with a 0.4 mm mesh. Red blood cells were lysed by incubation with 0.17M ammonium chloride at 4° C. for 20 minutes. Cells were scored for viability with trypan blue. Viable CX-1 cells (2.5 million) made up in 0.1 ml of […]. The mice were randomly allocated into a control group (five mice) and a treatment group (five mice per group). The drug treatment was commenced the next day. Doses and schedules were developed empirically and were based mainly on information on LD50 and LD1O obtained from preliminary toxicity studies. The control group received an equivalent volume of hydroxypropyl-β-cyclodextrin-5% glucose solution.
# The pharmaceutical compositions tested comprised solutions in 5% glucose subjected to sonication at concentrations of 1 mg/ml. Those compounds which were not completely dissolved by this procedure were dissolved hydroxypropyl-β-cyclodextrin using the following method. Hydroxypropyl-β-cyclodextrin (45 g) was mixed with 100 ml of sterilized, double distilled water and stirred for four hours. Each of the compounds to be tested (20 mg) was mixed with 10 ml of hydroxypropyl-β-cyclodextrin solution and sonicated for 60 minutes in the dark. This solution was then diluted in 5% glucose to yield a final compound concentration of 0.5 mg/ml, and further sonicated for 60 minutes in the dark to assure that the compound was completely dissolved.
# When the growth of tumors in the control group reached the exponential phase and the size of the tumor was palpable (usually 20 to 30 days after tumor implantation), the experiments were terminated. Tumors in each mouse were excised and weighed using an analytical balance. Total tumor weight in each group from five mice was calculated. Per cent tumor inhibition between the treated group and the control group was then calculated for each group.
# [2] = 5 mg/kg i.p. on day 1, 4, 8, 11, 15
# [3] = CV-1, Table III, normal monkey kidney epithelial cells, colony count after 7 to 10 days
# [4] = CX-1, Table III, human colon carcinoma, 24 hours treatment, colony count after 7 to 10 days
# [5] = human colon carcinoma, 24 hours treatment, colony count after 7 to 10 days
# [6] = 5 mg/kg i.p. on day 1, 5, 9, 13
# [7] = Table III, normal monkey kidney epithelial cells, colony count after 7 to 10 days
Structure (SMILES),LOX(IC50) (LOX cells) [µg/mL],CRL-1420(IC50) (CRL 1420 cells) [µg/mL],Selectivity (LOX cells),Selectivity (ratio of IC50 for CV-1 and IC50 for CX-1) (CX-1 cells),Selectivity (MCF-7 cells),Selectivity (CRL 1420 cells),Selectivity (EJ cells),IC50 (CX-1 cells; [4]) [µg/mL],CX-1 (IC50) (CX-1 cells; [5]) [µg/mL],CV-1 (IC50) (CV-1 cells; Table V) [µg/mL],CV-1 (IC50) (CV-1 cells; [7]) [µg/mL],also measured
CCn1c(=Cc2sc3ccccc3[n+]2CC)sc(=C2Sc3ccccc3N2C)c1=O [Compound 2],0.015,0.01,667,333,111,1000,200,–,–,–,–,"IC50 (CX-1 cells; CX-1): 0.03 µg/mL; response vs control in vivo at 5 mg/kg (human melanoma LOX; [2]): 163%; MCF-7(IC50) (MCF-7 cells): 0.09 µg/mL; IC50 (CV-1 cells; CV-1, 24 h, Table V): 10 µg/mL; IC50 (CV-1 cells; CV-1, 24 h, Table VI): 10 µg/mL; IC50 (CV-1 cells; CV-1, 24 h, Table VII): 10 µg/mL; IC50 (CV-1 cells; [3]): 10 µg/mL; CV-1 (IC50) (CV-1 cells; Table IV): 4 µg/mL; IC50 (EJ cells; Homo sapiens, 24 h): 0.02 µg/mL"
CC[n+]1c(C=c2sc(=C3Sc4ccccc4N3C)c(=O)n2-c2ccccc2)sc2ccccc21 [Compound 7],–,–,–,300,–,–,–,0.005,–,–,–,"response vs control in vivo at 5 mg/kg (human melanoma LOX; 5 mg/kg i.p. on day 1, 4, 8, 12): 182%; inhibition in vivo at 5 mg/kg ([1]; Mus musculus, ip, 24 h, 5 mg/kg i.p. on day 1, 5, 7, read-out: Tumor Inhibition): 42%; IC50 (CV-1 cells; [3]): 1.5 µg/mL"
CCn1c(=Cc2oc3ccccc3[n+]2C)sc(=C2Sc3ccccc3N2C)c1=O [Compound 8],–,–,> 200,500,–,–,–,0.04,–,–,–,"IC50 (LOX cells; Homo sapiens, 24 h): < 0.1 µg/mL; response vs control in vivo at 5 mg/kg (human melanoma LOX; [2]): 142%; inhibition in vivo at 5 mg/kg ([1]; Mus musculus, ip, 24 h, 5 mg/kg i.p. on day 1, 5, 9, 13, read-out: Tumor Inhibition): 55.1%; IC50 (CV-1 cells; CV-1, 24 h, Table V): 20 µg/mL"
CCn1c(=Cc2oc3ccccc3[n+]2C)sc(=C2Sc3ccccc3N2C)c1=O [Compound 9],0.1,0.09,> 300,500,–,222,400,–,0.04,> 30,–,"T/C (human melanoma LOX): 142%; inhibition in vivo at 5 mg/kg ([1]; Mus musculus, ip, 24 h, 5 mg/kg i.p. on day 1, 9, 13, read-out: Tumor Inhibition): 45.2%; IC50 (CV-1 cells; CV-1, 24 h, Table IV): 20 µg/mL; IC50 (CV-1 cells; CV-1, 24 h, Table VII): 20 µg/mL; EJ (IC50) (EJ cells): 0.05 µg/mL"
CCn1c(=Cc2oc3ccccc3[n+]2C)sc(=C2Sc3ccccc3N2C)c1=O [Compound 10],0.1,0.08,> 300,500,–,250,–,–,0.04,> 30,20,"T/C (human melanoma LOX): 171%; Tumor Inhibition [1, 6]: 66.0%; CV-1 (IC50) (CV-1 cells; Table VII): 20 µg/mL"
CCn1c(=Cc2oc3ccccc3[n+]2CC)sc(=C2Sc3ccccc3N2C)c1=O [Compound 28],–,–,–,175,–,–,–,–,0.04,–,7,"inhibition in vivo at 5 mg/kg ([1]; Mus musculus, ip, 24 h, 5 mg/kg i.p. on day 1, 4, 8, 12, 16, 21, read-out: Tumor Inhibition): 68.8%"
CN1C(=c2sc(=Cc3oc4ccccc4[n+]3C)n(C)c2=O)Sc2ccccc21 [Compound 57],–,–,–,120,–,–,–,0.05,–,–,6,"response vs control in vivo at 5 mg/kg (human melanoma LOX; 5 mg/kg i.p. on day 1, 2, 3, 6, 7, 8, 9, 10, 14): 163%; inhibition in vivo at 10 mg/kg ([1]; Mus musculus, ip, 24 h, 10 mg/kg i.p. on day 1, 2, 5, 6, 7, 8, read-out: Tumor Inhibition): 66.3%"
CCn1c(=Cc2oc3ccc(-c4ccccc4)cc3[n+]2CC)sc(=C2Sc3ccccc3N2C)c1=O [Compound 203],–,–,–,–,–,–,–,–,–,–,–,"response vs control in vivo at 5 mg/kg (human melanoma LOX; [6]): 139%; inhibition in vivo at 5 mg/kg ([1]; Mus musculus, ip, 24 h, 5 mg/kg i.p. on day 1, 5, 8, 11, read-out: Tumor Inhibition): 71.9%"

# Further lines, with some results ahead:
LOX(IC50) (LOX cells) [µg/mL],CRL-1420(IC50) (CRL 1420 cells) [µg/mL],Structure (SMILES),Selectivity (LOX cells),Selectivity (ratio of IC50 for CV-1 and IC50 for CX-1) (CX-1 cells),Selectivity (MCF-7 cells),Selectivity (CRL 1420 cells),Selectivity (EJ cells),IC50 (CX-1 cells; [4]) [µg/mL],CX-1 (IC50) (CX-1 cells; [5]) [µg/mL],CV-1 (IC50) (CV-1 cells; Table V) [µg/mL],CV-1 (IC50) (CV-1 cells; [7]) [µg/mL],also measured
0.09,0.05,CCn1c(=Cc2oc3ccccc3[n+]2C)sc(=C2Sc3ccccc3N2C)c1=O [Compound 13],> 222,> 667,–,> 400,222,–,0.03,> 20,> 20,"response vs control in vivo at 5 mg/kg (human melanoma LOX; 5 mg/kg i.p. on day 1, 4, 8, 11): 147%; inhibition in vivo at 20 mg/kg ([1]; Mus musculus, ip, 24 h, 20 mg/kg i.p. on day 1, 5, 8, 12, 15, 19, read-out: Tumor Inhibition): 87.7%; CV-1 (IC50) (CV-1 cells; Table IV): 20 µg/mL; CV-1 (IC50) (CV-1 cells; Table VII): > 20 µg/mL; EJ (IC50) (EJ cells): 0.09 µg/mL"
–,0.015,CCn1c(=Cc2sc3c4ccccc4ccc3[n+]2CC)sc(=C2Sc3ccc4ccccc4c3N2C)c1=O [Compound 82],312,400,312,1333,1333,0.05,–,–,–,"IC50 (LOX cells; Homo sapiens, 24 h): 0.064 µg/mL; response vs control in vivo at 5 mg/kg (human melanoma LOX; [2]): 142%; IC50 (MCF-7 cells; Homo sapiens, MCF7, 24 h): 0.064 µg/mL; IC50 (CV-1 cells; CV-1, 24 h, Table IV): 20 µg/mL; IC50 (CV-1 cells; CV-1, 24 h, Table V): 20 µg/mL; IC50 (CV-1 cells; CV-1, 24 h, Table VI): 20 µg/mL; IC50 (CV-1 cells; CV-1, 24 h, Table VII): 20 µg/mL; IC50 (CV-1 cells; [3]): 20 µg/mL; IC50 (EJ cells; Homo sapiens, 24 h): 0.015 µg/mL"
0.03,0.04,CCn1c(=CC2=[N+](CC)CCS2)sc(=C2Sc3ccccc3N2C)c1=O [Compound 335],667,200,100,500,200,–,0.1,20,26,"response vs control in vivo at 5 mg/kg (human melanoma LOX; 5 mg/kg i.p. on day 1, 5, 8, 11, 14): 189%; MCF-7(IC50) (MCF-7 cells): 0.2 µg/mL; CV-1 (IC50) (CV-1 cells; Table IV): 20 µg/mL; CV-1 (IC50) (CV-1 cells; Table VI): 20 µg/mL; CV-1 (IC50) (CV-1 cells; Table VII): 20 µg/mL; EJ (IC50) (EJ cells): 0.1 µg/mL"
–,0.03,CCn1c(=Cc2sc3ccccc3[n+]2CC)sc(=C2Sc3ccccc3N2C)c1=O [Compound 336],4000,–,100,667,667,–,–,–,–,"IC50 (LOX cells): 0.005 µg/mL; response vs control in vivo at 5 mg/kg (human melanoma LOX; 5 mg/kg i.p. on day 1, 3, 4, 6, 8, 10, 13): 188%; IC50 (MCF-7 cells; MCF7): 0.2 µg/mL; IC50 (CV-1 cells; CV-1, Table IV): 20 µg/mL; IC50 (CV-1 cells; CV-1, Table V): 20 µg/mL; IC50 (EJ cells): 0.03 µg/mL"
